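Growth conditions: 96-well plates. Treatment: test compound, 48 hours, 5 concentrations. Analysis: linear interpolation between bracketing concentrations; unreached endpoints set to highest concentration. Abbreviation: GI50, concentration required for 50% inhibition of growth.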 Calls of active or inactive are those of the source. No stated cut-off is given here; in the data, active = GI50 up to about 1.1 µM and inactive = higher.
Tests used:
Experiment in all cases: NCI anticancer screen, dose series, 48 h
SNB-19 = system: SNB-19
SK-MEL-5 = system: SK-MEL-5
U-251 = system: U-251
UO-31 = system: UO-31
OVCAR-3 = system: OVCAR-3
OVCAR-8 = system: OVCAR-8
HCC 2998 = system: HCC 2998
K562 = system: K562
SN12C = system: SN12C
SF-295 = system: SF-295
SR = system: SR
EKVX = system: EKVX
HT-29 = system: HT-29
OVCAR-4 = system: OVCAR-4
MOLT-4 = system: MOLT-4
RPMI-8226 = system: RPMI-8226

SMILES	GI50 (SNB-19)	GI50 (SK-MEL-5)	GI50 (U-251)	GI50 (UO-31)	GI50 (OVCAR-3)	GI50 (OVCAR-8)	GI50 (HCC 2998)	GI50 (K562)	GI50 (SN12C)	GI50 (SF-295)	GI50 (SR)	GI50 (EKVX)	GI50 (HT-29)	GI50 (OVCAR-4)	GI50 (MOLT-4)	GI50 (RPMI-8226)
O=C(CC(O)(c1ccccc1)c1ccc(Cl)cc1)NC(=O)c1ccccc1O (stereo not given)	4.47 µM (inactive)	6.52 µM (inactive)	3.38 µM (inactive)	2.42 µM (inactive)	4.36 µM (inactive)	4.54 µM (inactive)	4.99 µM (inactive)	4.6 µM (inactive)	3.76 µM (inactive)	4.4 µM (inactive)	11.6 µM (inactive)	20.7 µM (inactive)	18.8 µM (inactive)	5.74 µM (inactive)	10 µM (inactive)	–
O=C(Cc1nc2sc3c(c2c(=O)[nH]1)CCCC3)Nc1ccccc1	81.8 µM (inactive)	> 100 µM (inactive)	> 100 µM (inactive)	–	> 100 µM (inactive)	> 100 µM (inactive)	> 100 µM (inactive)	> 100 µM (inactive)	> 100 µM (inactive)	> 100 µM (inactive)	–	> 100 µM (inactive)	> 100 µM (inactive)	> 100 µM (inactive)	> 100 µM (inactive)	> 100 µM (inactive)
Oc1cccc(-c2cccc(O)n2)n1	–	> 100 µM (inactive)	> 100 µM (inactive)	> 100 µM (inactive)	> 100 µM (inactive)	> 100 µM (inactive)	> 100 µM (inactive)	> 100 µM (inactive)	> 100 µM (inactive)	> 100 µM (inactive)	–	> 100 µM (inactive)	> 100 µM (inactive)	–	> 100 µM (inactive)	> 100 µM (inactive)
Cn1nc(-c2cccc(-c3nn(C)/c(=N\CCO)s3)n2)s/c1=N/CCO	> 100 µM (inactive)	> 100 µM (inactive)	> 100 µM (inactive)	–	–	> 100 µM (inactive)	–	> 100 µM (inactive)	> 100 µM (inactive)	> 100 µM (inactive)	> 100 µM (inactive)	> 100 µM (inactive)	> 100 µM (inactive)	> 100 µM (inactive)	> 100 µM (inactive)	63 µM (inactive)
CC(=O)OC1(Sc2ccccc2)CC2[C@H]3COC(C)(C)O[C@H]3CC[C@@]2(C)CC1=O (stereo not given in full)	71.9 µM (inactive)	21.3 µM (inactive)	> 10 µM (inactive)	19 µM (inactive)	37.2 µM (inactive)	74.8 µM (inactive)	–	30.1 µM (inactive)	23.4 µM (inactive)	55.8 µM (inactive)	10 µM (inactive)	57.7 µM (inactive)	88.5 µM (inactive)	71.6 µM (inactive)	9.95 µM (inactive)	21.1 µM (inactive)
COc1ccc(/N=c2\ssc3c(=S)ssc23)cc1	–	19.4 µM (inactive)	28.4 µM (inactive)	–	25.2 µM (inactive)	17 µM (inactive)	37.2 µM (inactive)	3.99 µM (inactive)	37.8 µM (inactive)	53.3 µM (inactive)	3.61 µM (inactive)	–	–	34.9 µM (inactive)	3.72 µM (inactive)	9.91 µM (inactive)
Cc1cc(C)c2c(c1)Nc1ccccc1P2c1ccccc1 (stereo not given)	26.7 µM (inactive)	–	31.7 µM (inactive)	19.1 µM (inactive)	24.6 µM (inactive)	31.6 µM (inactive)	26.6 µM (inactive)	24.5 µM (inactive)	9.82 µM (inactive)	20 µM (inactive)	–	23.5 µM (inactive)	20.3 µM (inactive)	26.9 µM (inactive)	4.51 µM (inactive)	3.89 µM (inactive)
CC12C3CC4C5CC(C(C53)[C@@H]1NCc1ccccc1)C42 (stereo not given in full)	> 100 µM (inactive)	31.5 µM (inactive)	97.5 µM (inactive)	89.7 µM (inactive)	54.3 µM (inactive)	> 100 µM (inactive)	15.5 µM (inactive)	62.7 µM (inactive)	> 100 µM (inactive)	> 100 µM (inactive)	> 100 µM (inactive)	> 100 µM (inactive)	24.4 µM (inactive)	> 100 µM (inactive)	> 100 µM (inactive)	> 100 µM (inactive)
COC(=O)n1c(CBr)c(Br)c2ccccc21	44.9 µM (inactive)	51.5 µM (inactive)	27 µM (inactive)	18.2 µM (inactive)	20.3 µM (inactive)	48.2 µM (inactive)	32.6 µM (inactive)	25.4 µM (inactive)	–	23.7 µM (inactive)	24.8 µM (inactive)	–	63.7 µM (inactive)	25.8 µM (inactive)	26.2 µM (inactive)	21 µM (inactive)
CCCCCCCCOCC(O)CO (stereo not given)	> 100 µM (inactive)	> 100 µM (inactive)	> 100 µM (inactive)	> 100 µM (inactive)	> 100 µM (inactive)	> 100 µM (inactive)	89.5 µM (inactive)	> 100 µM (inactive)	> 100 µM (inactive)	> 100 µM (inactive)	45.9 µM (inactive)	> 100 µM (inactive)	> 100 µM (inactive)	> 100 µM (inactive)	44.7 µM (inactive)	44.6 µM (inactive)
NCCCCC(=O)c1cccnc1	> 100 µM (inactive)	> 100 µM (inactive)	> 100 µM (inactive)	> 100 µM (inactive)	> 100 µM (inactive)	> 100 µM (inactive)	–	> 100 µM (inactive)	–	> 100 µM (inactive)	> 100 µM (inactive)	> 100 µM (inactive)	> 100 µM (inactive)	–	> 100 µM (inactive)	> 100 µM (inactive)
O=c1c(Cl)c(Cl)cnn1CCc1ccncc1	15.6 µM (inactive)	16.1 µM (inactive)	–	20.8 µM (inactive)	17.6 µM (inactive)	22.1 µM (inactive)	14.5 µM (inactive)	35.3 µM (inactive)	18 µM (inactive)	29.5 µM (inactive)	20.8 µM (inactive)	19.6 µM (inactive)	16.6 µM (inactive)	18.6 µM (inactive)	82.6 µM (inactive)	36.6 µM (inactive)
CC(C)(CN1CCCCC1)C(=O)/C=C/c1ccc(Cl)cc1	5.15 µM (inactive)	3.08 µM (inactive)	3.51 µM (inactive)	7.5 µM (inactive)	2.77 µM (inactive)	2.32 µM (inactive)	13.2 µM (inactive)	2.69 µM (inactive)	2.61 µM (inactive)	3.03 µM (inactive)	2.58 µM (inactive)	3.3 µM (inactive)	3.22 µM (inactive)	4.27 µM (inactive)	1.81 µM (inactive)	2.94 µM (inactive)
CCCCCCCCCCCCCCCCCC(=O)OCC(C[As](=O)(O)O)OC(=O)CCCCCCCCCCCCCCCCC (stereo not given)	20.2 µM (inactive)	> 100 µM (inactive)	26 µM (inactive)	> 100 µM (inactive)	60.4 µM (inactive)	> 100 µM (inactive)	> 100 µM (inactive)	44.7 µM (inactive)	50.1 µM (inactive)	32.7 µM (inactive)	18.4 µM (inactive)	> 100 µM (inactive)	34.4 µM (inactive)	> 100 µM (inactive)	> 100 µM (inactive)	28.3 µM (inactive)
CC(C)C1(O)C(c2ccccc2)=C(c2ccccc2)C(c2ccccc2)=C1c1ccccc1	21.8 µM (inactive)	10.6 µM (inactive)	5.11 µM (inactive)	2.46 µM (inactive)	4.71 µM (inactive)	10.3 µM (inactive)	8.69 µM (inactive)	3.52 µM (inactive)	5.31 µM (inactive)	12.6 µM (inactive)	2.96 µM (inactive)	5.28 µM (inactive)	4.26 µM (inactive)	5.73 µM (inactive)	3.21 µM (inactive)	2.28 µM (inactive)
COc1cc2cnc3c4cc(OC)c(OC(C)C)cc4ccc3c2cc1OC	> 100 µM (inactive)	> 100 µM (inactive)	> 100 µM (inactive)	> 100 µM (inactive)	> 100 µM (inactive)	> 100 µM (inactive)	> 100 µM (inactive)	> 100 µM (inactive)	> 100 µM (inactive)	> 100 µM (inactive)	> 100 µM (inactive)	> 100 µM (inactive)	> 100 µM (inactive)	> 100 µM (inactive)	> 100 µM (inactive)	> 100 µM (inactive)
CCOC(=O)CC[C@@H](NC(=O)c1ccc(N[C@@H]2c3cc4c(cc3C(c3cc(OC)c(O)c(OC)c3)C3C(=O)OC[C@@H]32)OCO4)cc1)C(=O)OCC (stereo not given in full)	0.0197 µM (active)	0.0247 µM (active)	0.0175 µM (active)	0.0627 µM (active)	0.143 µM (active)	0.0251 µM (active)	0.136 µM (active)	0.0469 µM (active)	0.0256 µM (active)	0.0121 µM (active)	> 10 µM (inactive)	0.0251 µM (active)	0.0427 µM (active)	–	0.00194 µM (active)	0.0411 µM (active)
CC1O[C@@H]2CCCCC(=O)[C@]2(C)[C@H]1C (stereo not given in full)	> 100 µM (inactive)	> 100 µM (inactive)	> 100 µM (inactive)	> 100 µM (inactive)	> 100 µM (inactive)	> 100 µM (inactive)	> 100 µM (inactive)	> 100 µM (inactive)	> 100 µM (inactive)	> 100 µM (inactive)	–	> 100 µM (inactive)	> 100 µM (inactive)	> 100 µM (inactive)	> 100 µM (inactive)	> 100 µM (inactive)
CN(C)CCC1(C2=CCCC2)CC/C(=C\c2ccc(Cl)cc2)C1=O (stereo not given)	11.3 µM (inactive)	1.99 µM (inactive)	8.87 µM (inactive)	5.33 µM (inactive)	13.7 µM (inactive)	12.3 µM (inactive)	7.82 µM (inactive)	2.58 µM (inactive)	11.9 µM (inactive)	7.82 µM (inactive)	4.51 µM (inactive)	7.16 µM (inactive)	2.95 µM (inactive)	9.46 µM (inactive)	2.24 µM (inactive)	5.73 µM (inactive)

Source: ChEMBL document CHEMBL1201862, “PubChem BioAssay data set” (2004)
